# Measurements: US11357873B2, “Chiral cyclen compounds and their uses” (THE HONG KONG POLYTECHNIC UNIVERSITY, priority 2016, dated 2022)
# How the values were obtained:
# Type in all cases: physicochemical
# [1] = Circularly polarized luminescence (CPL), dissymmetry factor glum; details: for glum ΔJ = 1 (λ) DMSO / glum ΔJ = 3 (λ) DMSO / glum ΔJ = 1 (λ) H2O / glum ΔJ = 3 (λ) H2O: wavelength in parentheses in the cell
# Experimental: (§1) Steady-state room temperature photoluminescence measurements were performed with an Edinburgh Instrument FLSP920 spectrophotometer equipped with a Xe900 continuous xenon lamp, μF920 microsecond flash lamp and a single photon counting photomultiplier tube. Spectra were corrected with the bundled F900 software. Solution-state measurements were conducted using quartz curettes of 10 mm path length. CPL measurements were conducted on a custom built spectrometer^63 (in Durham University) consisting of a laser driven light source (Energetiq EQ-99 LDLS, spectral range 170 to 2100 nm) coupled to an Acton SP2150 monochromator (600 g/nm, 300 nm Blaze) that allows excitation wavelengths to be selected with a 6 nm FWHM band-pass. The collection of the emitted light was facilitated (90° angle set up, 1 cm path length quartz curette) by a Lock-In Amplifier (Hinds Instruments Signaloc 2100) and Photoelastic Modulator (Hinds Instruments PEM-90). The differentiated light was focused onto an Acton SP2150 monochromator (1200 g/nm, 500 nm Blaze) equipped with a high sensitivity cooled Photo Multiplier Tube (H10723-20 Extended red-multialkali PMT based photosensor (5V)). Spectra were recorded using a 5 spectral average sequence in the range of 570-720 nm with 0.5 nm spectral intervals and 500 μs integration time.
# [2] = Absorption and photoluminescence (quantum yield, lifetime, q); parameters: λabs(max): unit not given here; details: for R, I(5D0 → 7F2)/I(5D0 → 7F1): asymmetry ratio, 10 in MeOH; for R, I(5D0 → 7F2)/I(5D0 → 7F1) / λabs(max): room temperature, 11 in DMSO; for q (Parker's) / q (Horrocks'): from lifetimes in H2O and D2O; for q (Parker's): first value of cell; for q (Horrocks'): second value of cell; for ΦEuEu (%): intrinsic quantum yield, calculated value; for τD2O/MeOD / τH2O/MeOH: luminescence lifetime, 5D0 → 7F2 transition; for τD2O/MeOD: D2O (MeOD for 10); for τH2O/MeOH: H2O (MeOH for 10); for ΦDMSO (%): luminescence quantum yield in DMSO; for ΦH2O/MeOH (%): luminescence quantum yield relative to quinine sulfate in 0.1M H2SO4, H2O (MeOH for 10, insoluble in H2O); for ΦHEPES (%): luminescence quantum yield, 0.1M HEPES buffer, pH 7.4; for λabs(max): 10 measured in MeOH; for ηsens (%): sensitization efficiency, calculated according to ref 61
# Experimental: as §1, with “Absorption spectra of complexes were measured with HP UV-8453 spectrophotometer. Steady-state” for “Steady-state”, “time. The recorded CPL spectrum underwent a 25% Fourier transformation smoothening protocol using Origin 8.0 Software (Origin Labs) to enhance appearance (all calculations were carried out using raw spectral data).” for “time.”
# The shift in absorption is caused by electronic communication between the electropositive lanthanide center and the chromophore. […] These are not observed for 11, however, as we believe the steric effect of the planar phenyl ring of the benzyl group could not be alleviated by appropriate rotation, whereas that of the isobutyl group could.
# The luminescence quantum yields of the complexes are decent in water and HEPES solution, although they are much higher in DMSO, due to the nonradiative quenching by O—H oscillators of water molecules in the second coordination sphere (Table 6). The intrinsic quantum yields^61—a calculated value evaluating the quantum yield of Eu(III) via direct metal excitation—of the complexes are calculated, and, as expected, the values are very similar, except for 10. The higher value corroborates with the shift in absorption maximum, for which we believe the reason is due to a shorter europium—chromophore distance and better interaction. On the other hand, the sensitization efficiencies of the complexes vary. […] The relatively remarkable ηsens of 13 is attributed to its structural rigidity, as both the tetraaza backbone and the acetate arms are modified with a chrial substituent, i.e., double chirality. The double chirality is also attributed for the increase in luminescence quantum yield compared to that of 12a/12b.
# [3] = Relaxivity (r1, r2) measurement of Gd(III) complexes in water, BSA and human plasma; parameters: r1 Human Plasma (1.5 T): unit not given beside the values; details: 1.5 T, 37° C.
# Experimental: This is very important because the huge difference in the inner-sphere coordinated water exchange rate between the two isomers is a key factor for applications, for example, as MRI contrast agents. To show their potential value, the two diastereomers of [GdL2]^− ([GdL2A]^− and [GdL2B]^−) were separated and their relaxivities were measured. The relaxivities of [GdL1]^−, [GdL2]^−, [GdL2A]^−, [GdL2B]^− and [GdDOTA]^− in water at different magnetic strengths (1.5 T and 11.7 T) were compared, with or without the presence of BSA and human plasma (1.5 T) (Table 1). It is clearly seen that the complexes of [GdL1]^−, [GdL2A]^− and [GdL2B]^− have relaxivity properties similar to that of the [GdDOTA]^− complex.
SMILES,r1 4.5 w/v BSA (1.5 T) [3],r1 Human Plasma (1.5 T) [3],r1 Water (1.5 T) [3],"R, I(5D0 → 7F2)/I(5D0 → 7F1) [2]",q (Parker's) [2],q (Horrocks') [2],ΦEuEu (%) [2] [%],τD2O/MeOD [2] [ms],τH2O/MeOH [2] [ms],ΦDMSO (%) [2] [%],ΦH2O/MeOH (%) [2] [%],ΦHEPES (%) [2] [%],λabs(max) [2],ηsens (%) [2] [%],also measured
"COc1cc(OC)c(C#Cc2cc(CN3CCN(C(C)C(=O)[O-])CCN(C(C)C(=O)[O-])CCN(C(C)C(=O)[O-])CC3)nc(P(C)(=O)[O-])c2)c(OC)c1.[Eu+3] (single isomer, unassigned) [Complex 12a]",–,–,–,–,–,–,–,–,–,–,–,–,–,–,"glum ΔJ = 1 (λ) DMSO ([1]; listed as 12a): −0.04 (591); glum ΔJ = 3 (λ) DMSO ([1]; listed as 12a): −0.04 (657); glum ΔJ = 1 (λ) H2O ([1]; listed as 12a): −0.03 (588); glum ΔJ = 3 (λ) H2O ([1]; listed as 12a): −0.05 (653); R, I(5D0 → 7F2)/I(5D0 → 7F1) ([2]; listed as 12a): 2.74; q (Parker's) ([2]; listed as 12a): 0.07; q (Horrocks') ([2]; listed as 12a): 0.01; ΦEuEu (%) ([2]; listed as 12a): 26.6%; τD2O/MeOD ([2]; listed as 12a): 1.70 ms; τH2O/MeOH ([2]; listed as 12a): 1.12 ms; ΦDMSO (%) ([2]; listed as 12a): 46.4%; ΦH2O/MeOH (%) ([2]; listed as 12a): 12.7%; ΦHEPES (%) ([2]; listed as 12a): 12.4%; λabs(max) ([2]; listed as 12a): 352; ηsens (%) ([2]; listed as 12a): 47.0%"
"COc1cc(OC)c(C#Cc2cc(CN3CCN(C(C)C(=O)[O-])CCN(C(C)C(=O)[O-])CCN(C(C)C(=O)[O-])CC3)nc(P(C)(=O)[O-])c2)c(OC)c1.[Eu+3] (single isomer, unassigned) [Complex 12b]",–,–,–,–,–,–,–,–,–,–,–,–,–,–,"glum ΔJ = 1 (λ) DMSO ([1]; listed as 12b): −0.11 (591); glum ΔJ = 3 (λ) DMSO ([1]; listed as 12b): −0.10 (653); glum ΔJ = 1 (λ) H2O ([1]; listed as 12b): −0.04 (591); glum ΔJ = 3 (λ) H2O ([1]; listed as 12b): −0.11 (653); R, I(5D0 → 7F2)/I(5D0 → 7F1) ([2]; listed as 12b): 2.41; q (Parker's) ([2]; listed as 12b): 0.11; q (Horrocks') ([2]; listed as 12b): 0.03; ΦEuEu (%) ([2]; listed as 12b): 24.9%; τD2O/MeOD ([2]; listed as 12b): 1.77 ms; τH2O/MeOH ([2]; listed as 12b): 1.04 ms; ΦDMSO (%) ([2]; listed as 12b): 44.1%; ΦH2O/MeOH (%) ([2]; listed as 12b): 10.2%; ΦHEPES (%) ([2]; listed as 12b): 9.8%; λabs(max) ([2]; listed as 12b): 355; ηsens (%) ([2]; listed as 12b): 41.0%"
"CC[C@H]1CN(CC(=O)[O-])[C@@H](CC)CN(CC(=O)[O-])[C@@H](CC)CN(CC(=O)[O-])[C@@H](CC)CN1CC(=O)[O-].[Gd+3] (single isomer, unassigned) [[GdL2A]^−]",3.9,2.9,3.0,–,–,–,–,–,–,–,–,–,–,–,–
"CC[C@H]1CN(CC(=O)[O-])[C@@H](CC)CN(CC(=O)[O-])[C@@H](CC)CN(CC(=O)[O-])[C@@H](CC)CN1CC(=O)[O-].[Gd+3] (single isomer, unassigned) [[GdL2B]^−]",3.6,3.5,3.0,–,–,–,–,–,–,–,–,–,–,–,–
COc1cc(OC)c(C#Cc2cc(CN3CCN(CC(=O)[O-])CCN(CC(=O)[O-])CCN(CC(=O)[O-])CC3)nc(P(C)(=O)[O-])c2)c(OC)c1.[Eu+3] [Complex 7],–,–,–,2.52,0.06,0.01,23.6,1.44,1.01,47.0,7.6,6.9,353,32.3,–
CC[C@H]1CN(CC(=O)[O-])[C@@H](CC)CN(Cc2cc(C#Cc3c(OC)cc(OC)cc3OC)cc(P(C)(=O)[O-])n2)[C@@H](CC)CN(CC(=O)[O-])[C@@H](CC)CN1CC(=O)[O-].[Eu+3] [Complex 8],–,–,–,2.43,0.10,0.02,26.0,1.76,1.12,50.0,14.0,14.0,356,53.8,glum ΔJ = 1 (λ) DMSO [1]: −0.18 (591); glum ΔJ = 3 (λ) DMSO [1]: +0.17 (657); glum ΔJ = 1 (λ) H2O [1]: −0.11 (591); glum ΔJ = 3 (λ) H2O [1]: −0.28 (653)
CCC1CN(C(C)C(=O)[O-])C(CC)CN(C(C)C(=O)[O-])C(CC)CN(C(C)C(=O)[O-])C(CC)CN1Cc1cc(C#Cc2c(OC)cc(OC)cc2OC)cc(P(C)(=O)[O-])n1.[Eu+3] (centres unmarked) [Complex 13],–,–,–,2.66,0.00,0.06,30.2,1.83,1.25,49.7,21.9,20.9,356,72.6,glum ΔJ = 1 (λ) DMSO [1]: −0.17 (588); glum ΔJ = 3 (λ) DMSO [1]: −0.29 (657); glum ΔJ = 3 (λ) H2O [1]: −0.33 (652); absolute glum 589 nm ([1]; aqueous solution): 0.23
"O=C([O-])CN1CCN(CC(=O)[O-])CCN(CC(=O)[O-])CCN(CC(=O)[O-])CC1.[Gd+3] [[GdDOTA]^−, reference compound]",4.1,4.0,3.2,–,–,–,–,–,–,–,–,–,–,–,–
